Experimental data: patent US20050197350A1, “Novel quinoline, tetrahydroquinazoline, and pyrimidine derivatives and methods of treatment related to the use thereof” (TAISHO PHARMACEUTICAL CO., LTD., priority 2003, published 2005)
Counter-ions that a name gives are not always drawn. Like-named read-outs stand apart in the source and are kept apart here.

Target: MCH receptor (Homo sapiens, UniProt Q99705)
Assay: High throughput functional screening FLIPR/FDSS6000 (intracellular Ca2+ evoked by MCH)
Assay type: cell-based
Details: FLIPR/FDSS, antagonist activity vs 50 nM MCH, class by percent of control at 10^−7 M or IC50, read-out: class
Excerpt: High Throughput Functional Screening: FLIPR™
This assay utilized a non-endogenous, constitutively active version of the MCH receptor.
The concentration of free Ca^2+ in the cytosol of any cell is extremely low, whereas its concentration in the extracellular fluid and endoplasmic reticulum (ER) is very high. Thus, there is a large gradient tending to drive Ca^2+ into the cytosol across both the plasma membrane and ER. The FLIPR™ and FDSS6000™ systems (Molecular Devices Corporation, […] Photonics K.K.) are designed to perform functional cell-based assays, such as the measurement of intracellular calcium for high-throughput screening. The measurement of fluorescent is associated with calcium release upon activation of the Gq-coupled receptors.
Fluorometric Imaging Plate Reader system was used to allow for rapid, kinetic measurements of intracellular fluorescence in 96 well microplates (or 384 well microplates). Simultaneous measurements of fluorescence in all wells can be made by FLIPR or FDSS6000™ every second with high sensitivity and precision. These systems are ideal for measuring cell-based functional assays such as monitoring the intracellular calcium fluxes that occur within seconds after activation of the Gq coupled receptor.
Briefly, the cells are seeded into 96 well at 5.5×10^4 cells/well with complete culture media (Dulbecco's Modified Eagle Medium with 10% fetal bovine serum, 2 mM L-glutamine, 1 mM sodium pyruvate and 0.5 mg/ml G418, pH 7.4) for the assay next day. On the day of assay, the media is removed and the cells are incubated with 100 μl of loading buffer (4 μM Fluo4-AM in complete culture media containing 2.5 mM Probenicid, 0.5 mg/ml and 0.2% bovine serum albumin) in 5% CO2 incubator at 37° C. for 1 hr. The loading buffer is removed, and the cells are washed with wash buffer (Hank's Balanced Salt Solution containing 2.5 mM Probenicid, 20 mM HEPES, 0.5 mg/ml and 0.2% bovine serum albumin, pH 7.4)). One hundred fifty μl of wash buffer containing various concentrations of test compound is added to the cells, and the cells are incubated in 5% CO2 incubator at 37° C. for 30 min. […] 530 nm for 290 second. When antagonist activity of compound is tested, 50 nM of MCH is used.
Use of FLIPR™ and FDSS6000™ can be accomplished by following manufacturer's instruction (Molecular Device Corporation and […] Photonics K.K.).

SMILES	IC50 [nM]	IC50 (table after the classification) [nM]
CNc1nc(N[C@H]2CC[C@@H](NC(=O)COc3cc(C(F)(F)F)n(C)n3)CC2)ncc1C [Example 3364, N-(cis-4-{[5-methyl-4-(methylamino)pyrimidin-2-yl]amino}-cyclohexyl)-2-{[1-methyl-5-(trifluoromethyl)-1H-pyrazol-3-yl]oxy}acetamide]	> 200	–
Cc1cc(N(C)C)nc(N[C@H]2CC[C@@H](NC(=O)N(C)C(C)(C)c3ccc(Cl)cc3)CC2)n1 [Example 3270, N-[1-(4-chiorophenyl)-1-methylethyl]-N′-(cis-4-{[4-(dimethylamino)-6-methylpyrimidin-2-yl]amino}cyclohexyl)-N-methylurea]	50 to 200	–
Cc1cnc(N[C@H]2CC[C@@H](NC(=O)c3cc(F)cc(F)c3)CC2)nc1N(C)C [Example 3390, N-[cis-4-(4-Dimethylamino-5-methyl-pyrimidin-2-ylamino)-cyclohexyl]-3,5-difluoro-benzamide hydrochloride]	–	< 50
Cc1cnc(N[C@H]2CC[C@@H](NC(=O)Nc3cc(Cl)cc(Cl)c3)CC2)nc1N(C)C [Example 3339, N-(3,5-dichlorophenyl)-N′-(cis-4-{[4-(dimethylamino)-5-methylpyrimidin-2-yl]amino}cyclohexyl)urea]	50 to 200	–
CCN(C)c1ccnc(N[C@H]2CC[C@@H](NC(=O)c3ccc(F)c(F)c3)CC2)n1 [Example 3226, N-{cis-4-[4-(Ethyl-methyl-amino)-pyrimidin-2-ylamino]-cyclohexyl}-3,4-difluoro-benzamide hydrochloride]	–	> 200
Cc1cc(N[C@H]2CC[C@@H](C(=O)N[C@@H](C)c3cc(C(F)(F)F)cc(C(F)(F)F)c3)CC2)nc2ccccc12 [Example 3309, cis-N-{(1S)-1-[3,5-bis(trifluoromethyl)phenyl]ethyl}-4-[(4-methylquinolin-2-yl)amino]cyclohexanecarboxamide]	50 to 200	–
Cc1cc(N(C)C)nc(N[C@H]2CC[C@@H](NC(=O)N(C)C(C)(C)c3cc(C(F)(F)F)cc(C(F)(F)F)c3)CC2)n1 [Example 3268, N-{1-[3,5-bis(trifluoromethyl)phenyl]-1-methylethyl}-N′-(cis-4-{[4-(dimethylamino)-6-methylpyrimidin-2-yl]amino}cyclohexyl)-N-methylurea]	> 200	–
CNc1cc(C)nc(N[C@H]2CC[C@@H](NC(=O)COc3ccc(Cl)c(Cl)c3)CC2)n1 [Example 3360, 2-(3,4-dichlorophenoxy)-N-(cis-4-{[4-methyl-6-(methylamino)pyrimidin-2-yl]amino}cycohexyl)acetamide]	< 50	–
COc1ccccc1S(=O)(=O)c1ncccc1C(=O)N[C@H]1CC[C@@H](Nc2nc(C)cc(N(C)C)n2)CC1 [Example 3378, N-(cis-4-{[4-(dimethylamino)-6-methylpyrimidin-2-yl]amino}cyclohexyl)-2-[(2-methoxyphenyl)sulfonyl]-nicotinamide]	> 200	–
Cc1cnc(N[C@H]2CC[C@@H](NC(=O)c3ccc(Cl)c(F)c3)CC2)nc1N(C)C [Example 3387, 4-Chloro-N-[cis-4-(4-dimethylamino5-methyl-pyrimidin-2-ylamino)-cyclohexyl]3-fluoro-benzamide hydrochloride]	–	< 50
Cc1cc(N(C)C)nc(N[C@H]2CC[C@@H](NC(=O)N(C)C3(c4ccc(Cl)cc4)CC3)CC2)n1 [Example 3272, N-[1-(4-chlorophenyl)cyclopropyl]-N′-(cis-4-{[4-(dimethylamino)-6-methylpyrimidin-2-yl]amino}cyclohexyl)-N-methylurea]	> 200	–
Cc1cnc(N[C@H]2CC[C@@H](NC(=O)c3cccnc3S(=O)(=O)c3ccc(C(F)(F)F)cc3)CC2)nc1N(C)C [Example 3291, N-(cis-4-{[4-(dimethylamino)-5-methylpyrimidin-2-yl]amino}cyclohexyl)-2-{[4-(trifluoromethyl)phenyl]sulfonyl}-nicotinamide]	50 to 200	–

Other lines, results leading:

IC50 [nM]	IC50 (table after the classification) [nM]	SMILES
–	> 200	Cc1cc(N[C@H]2CC[C@@H](NC(=O)c3ccc(-n4ccnc4)nc3)CC2)nc2ccccc12 [Example 3187, 6-Imidazol-1-yl-N-[cis-4-(4-methyl-quinolin-2-ylamino)-cyclohexyl]-nicotinamide dihydrochloride]
–	< 50	Cc1cc(N(C)C)nc(N[C@H]2CC[C@@H](NC(=O)c3cccc(Cl)c3)CC2)n1 [Example 3128, 3-Chloro-N-[cis-4-(4-dimethylamino-6-methyl-pyrimidin-2-ylamino)-cyclohexyl]-benzamide hydrochloride]
–	< 50	Cc1cccc(OCC(=O)N[C@H]2CC[C@@H](Nc3cc(C)c4ccccc4n3)CC2)c1 [Example 3084, N-[cis-4-(4-Methyl-quinolin-2-ylamino)-cyclohexyl]-2-m-tolyloxy-acetamide hydrochloride]
–	> 200	CCNc1ccnc(N[C@H]2CC[C@@H](NC(=O)c3ccc(F)c(F)c3)CC2)n1 [Example 3225, N-[cis-4-(4-Ethylamino-pyrimidin-2-ylamino)-cyclohexyl]-3,4-difluoro-benzamide hydrochloride]
–	< 50	O=C(N[C@H]1CC[C@@H](Nc2ccc3ccccc3n2)CC1)c1ccc2nonc2c1 [Example 3041, Benzo[2,1,3]oxadiazole-5-carboxylic acid-[cis-4-(quinolin-2-ylamino)-cyclohexyl]-amide hydrochloride]
50 to 200	–	Cc1cc(N[C@H]2CC[C@@H](C(=O)N[C@@H](C)c3ccc(Cl)cc3)CC2)nc2ccccc12 [Example 3306, cis-N-[(1S)-1-(4-chlorophenyl)ethyl]-4-[(4-methylquinolin-2-yl)amino]cyclohexanecarboxamide]
–	50 to 200	O=C(N[C@H]1CC[C@@H](Nc2ccc3ccccc3n2)CC1)c1cccc(OC(F)(F)F)c1 [Example 3149, N-[cis-4-(Quinolin-2-ylamino)-cyclohexyl]-3-trifluoromethoxy-benzamide hydrochloride]
–	< 50	Cc1cccc(C(=O)N[C@H]2CC[C@@H](Nc3cc(C)c4ccccc4n3)CC2)c1 [Example 3075, 3-Methyl-N-[cis-4-(4-methyl-quinolin-2-ylamino)-cyclohexyl]-benzamide hydrochloride]
–	< 50	Cc1cc(N[C@H]2CC[C@@H](CNC(=O)Nc3cccc(Cl)c3Cl)CC2)nc2ccccc12 [Example 3106, 1-(2,3-Dichloro-phenyl)-3-[cis-4-(4-methyl-quinolin-2-ylamino)-cyclohexylmethyl]-urea hydrochloride]
< 50	–	Cc1cc(N[C@H]2CC[C@@H](C(=O)N[C@@H](C)c3ccccc3F)CC2)nc2ccccc12 [Example 3312, cis-N-[(1S)-1-(2-fluorophenyl)ethyl]-4-[(4-methylquinolin-2-yl)amino]cyclohexanecarboxamide]
–	< 50	O=C(COc1cccc(Cl)c1)N[C@H]1CC[C@@H](Nc2ccc3ccccc3n2)CC1 [Example 3063, 2-(3-Chloro-phenoxy)-N-[cis-4-(quinolin-2-ylamino)-cyclohexyl]-acetamide hydrochloride]
–	< 50	Cc1cc(N[C@H]2CC[C@@H](NC(=O)c3cncc(F)c3)CC2)nc2ccccc12 [Example 3397, 5-Fluoro-N-[cis-4-(4-methyl-quinolin-2-ylamino)-cyclohexyl]-nicotinamide]
–	< 50	CN(C)c1ccnc(N[C@H]2CC[C@@H](NC(=O)c3cccnc3Oc3ccc(F)cc3)CC2)n1 [Example 3201, N-[cis-4-(4-Dimethylamino-pyrimidin-2-ylamino)-cyclohexyl]-2-(4-fluoro-phenoxy)-nicotinamide hydrochloride]
< 50	–	Cc1cnc(N[C@H]2CC[C@@H](NC(=O)N(C)c3ccccc3OC(F)(F)F)CC2)nc1N(C)C [Example 3352, N′-(cis-4-{[4-(dimethylamino)-5-methylpyrimidin-2-yl]amino}cyclohexyl)-N-methyl-N-[2-(trifluoromethoxy)-phenyl]urea]
–	50 to 200	Cc1cc(N[C@H]2CC[C@@H](CNC(=O)c3ccc(F)c(F)c3)CC2)nc2ccccc12 [Example 3104, 3,4-Difluoro-N-[cis-4-(4-methyl-quinolin-2-ylamino)-cyclohexylmethyl]-benzamide hydrochloride]
–	< 50	CN(C)c1cc(N[C@H]2CC[C@@H](NC(=O)c3cccnc3Oc3ccccc3)CC2)nc2ccccc12 [Example 3114, N-[cis-4-(4-Dimethylamino-quinolin-2-ylamino)-cyclohexyl]-2-phenoxy-nicotinamide hydrochloride]
–	> 200	O=C(N[C@H]1CC[C@@H](Nc2nccc(C(F)(F)F)n2)CC1)c1ccc(F)c(F)c1 [Example 3130, 3,4-Difluoro-N-[cis-4-(4-trifluoromethyl-pyrimidin-2-yl)amino-cyclohexyl]-benzamide hydrochloride]
